Assay results as given in US20220348564A1, “PHENYL-[1,3]DIOXOLO[4,5-C]PYRIDINYL-PHENYL-, PHENYL-[1,3]DIOXOLO[4,5-C]PYRIDINYL-HETEROARYL-, OR PHENYL-(1,3)DIOXO[4,5-C]PYRIDINYL-PIPERIDINYL-METHYL-OXETANYLMETHYL-1H-BENZO[D]IMIDAZOLE-CARBOXYLIC ACID DERIVATIVES AND METHODS OF USING SAME” (Eccogene (Shanghai) Co., Ltd., priority 2021, published 2022).

Biological target: T1, human GLP-1 (Homo sapiens, UniProt P43220)
T1 construct: expressed in transfected cells
Assay: h-GLP-1 activity assay (Cisbio cAMP Gs dynamic kit, HTRF)
Type: cell-based
Settings: HEK293 cells with stable expression of human GLP-1, relative EC50, 10 nM human GLP-1 = 100% response
Method: Human GLP-1 agonizing activity was detected in HEK293 cells with stable expression of human GLP-1 by Cisbio cAMP Gs dynamic kit (Catalog #62AM4PEC) according to manufacturer's protocol. Briefly, cells were collected and resuspended in assay buffer containing 0.1% BSA and 0.5 mM of IBMX at concentration to 2.5×10^5 cells/mL. Two μL 5× compound solution and 8 μL cell suspension were added to each well of low-volume 384 white assay plate. After 30 min incubation at 37° C., 5 μL cAMP-d2 working solution and 5 μL anti-cAMP antibody-cryptate were added to each well, and incubate at room temperature for 1 hr. Series dilution of cAMP was used as standard. Human GLP-1 (7-37) was used as positive control and 10 nM human GLP-1 was set as 100% response. HTRF signals were read at 665 and 615 nm with EnVision plate reader and calculated cAMP concentration by intrapolation to the standard curve. The EC50 value of the tested compounds was calculated by fitting the dose response curve using a 4-parameter non-linear regression routine and relative EC50 was presented in Table S.

T1 sequence (P43220 24-463): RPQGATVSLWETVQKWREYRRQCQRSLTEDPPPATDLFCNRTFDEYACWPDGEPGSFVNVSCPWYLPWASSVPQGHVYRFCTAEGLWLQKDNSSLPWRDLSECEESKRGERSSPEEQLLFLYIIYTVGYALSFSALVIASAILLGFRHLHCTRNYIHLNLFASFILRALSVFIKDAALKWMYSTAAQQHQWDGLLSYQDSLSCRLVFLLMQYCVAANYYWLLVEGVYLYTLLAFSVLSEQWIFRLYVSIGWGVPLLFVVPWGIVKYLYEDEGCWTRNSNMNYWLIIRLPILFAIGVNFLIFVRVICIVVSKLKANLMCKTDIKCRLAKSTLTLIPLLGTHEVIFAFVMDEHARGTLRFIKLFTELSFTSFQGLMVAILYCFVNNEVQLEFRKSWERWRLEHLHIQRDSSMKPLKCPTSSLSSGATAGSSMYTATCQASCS

EC50 [nM] | SMILES
> 100 | CCC1(c2ccc(Cl)cc2F)Oc2cccc(-c3ccc(Cc4nc5ccc(C(=O)O)cc5n4C[C@@H]4CCO4)cc3)c2O1 (mixture of isomers) [Compound 7, 2-(4-(2-(4-chloro-2-fluorophenyl)-2-ethylbenzo[d][1,3]dioxol-4-yl)benzyl)-1-(((S)-oxetan-2-yl)methyl)-1H-benzo[d]imidazole-6-carboxylic acid]
< 20 | C[C@@]1(c2ccc(Cl)cn2)Oc2cccc(N3CC=C(Cc4nc5ccc(C(=O)O)cc5n4C[C@@H]4CCO4)CC3)c2O1 (single isomer, unassigned) [Compound 77]
< 20 | Cc1cc(Cc2nc3ccc(C(=O)O)cc3n2C[C@@H]2CCO2)ccc1-c1cccc2c1OC(C)(c1ccc(Cl)cc1F)O2 (mixture of isomers) [Compound 43, 2-(4-(2-(4-chloro-2-fluorophenyl)-2-methylbenzo[d][1,3]dioxol-4-yl)-3-methylbenzyl)-1-(((S)-oxetan-2-yl)methyl)-1H-benzo[d]imidazole-6-carboxylic acid]
< 20 | C[C@@]1(c2ccc(Cl)cc2F)Oc2cccc(C3CCN(Cc4nc5ccc(C(=O)NS(=O)(=O)C6CC6)cc5n4C[C@@H]4CCO4)CC3)c2O1 (single isomer, unassigned) [Compound 24]
> 100 | C[C@@]1(c2ccc(Cl)cn2)Oc2cccc(-c3ccc(Cc4nc5ccc(C(=O)O)cc5n4C[C@@H]4CCO4)cc3)c2O1 (single isomer, unassigned) [Compound 41]
< 20 | CC1(c2ccc(Cl)cc2F)Oc2cccc(-c3ccc(Cc4nc5ccc(C(=O)O)cc5n4C[C@@H]4CCO4)nc3)c2O1 (mixture of isomers) [Compound 16, 2-((5-(2-(4-chloro-2-fluorophenyl)-2-methylbenzo[d][1,3]dioxol-4-yl)pyridin-2-yl)methyl)-1-(((S)-oxetan-2-yl)methyl)-1H-benzo[d]imidazole-6-carboxylic acid]
20 to 100 | C[C@@]1(c2ccc(Cl)cn2)Oc2cccc(C3C4CN(Cc5nc6ccc(C(=O)O)cc6n5C[C@@H]5CCO5)CC43)c2O1 (single isomer, unassigned) [Compound 85]
> 100 | O=C(O)c1ccc2nc(C[C@@H]3CC[C@@H](c4cccc(OCc5ccc(Cl)cc5F)n4)CO3)n(Cc3cncs3)c2c1 (single isomer, unassigned) [Compound 29]
< 20 | C[C@@]1(c2ccc(C3CC3)cn2)Oc2cccc(C3=CC[C@H](Cc4nc5c(F)cc(C(=O)O)cc5n4C[C@@H]4CCO4)OC3)c2O1 (single isomer, unassigned) [Compound 123]
> 100 | C[C@]1(c2ccc(Cl)cn2)Oc2cccc(C3=CC[C@@H](Cc4nc5c(F)cc(C(=O)O)cc5n4Cc4cscn4)OC3)c2O1 (single isomer, unassigned) [Compound 117]
> 100 | C[C@@]1(c2ccc(Cl)cn2)Oc2cccc(N3CC4C(Cc5nc6ccc(C(=O)O)cc6n5C[C@@H]5CCO5)C4C3)c2O1 (single isomer, unassigned) [Compound 73]
> 100 | O=C(O)c1ccc2nc(Cc3ccc(-c4cccc5c4NC(=O)C(c4ccc(Cl)cc4F)O5)cc3)n(C[C@@H]3CCO3)c2c1 (mixture of isomers) [Compound 42, 2-(4-(2-(4-chloro-2-fluorophenyl)-3-oxo-3,4-dihydro-2H-benzo[b][1,4]oxazin-5-yl)benzyl)-1-(((S)-oxetan-2-yl)methyl)-1H-benzo[d]imidazole-6-carboxylic acid]
> 100 | CC1(c2ccc(Cl)cc2F)Oc2cccc(C3CC4(C3)CN(Cc3nc5ccc(C(=O)O)cc5n3C[C@@H]3CCO3)C4)c2O1 (mixture of isomers) [Compound 23, 2-((6-(2-(4-chloro-2-fluorophenyl)-2-methylbenzo[d][1,3]dioxol-4-yl)-2-azaspiro[3.3]heptan-2-yl)methyl)-1-(((S)-oxetan-2-yl)methyl)-1H-benzo[d]imidazole-6-carboxylic acid]
> 100 | O=C(O)c1ccc2nc(CC34CCC(c5ccnc(OCc6ccc(Cl)cc6F)n5)(CC3)CO4)n(C[C@@H]3CCO3)c2c1 [Compound 35, (S)-2-((4-(2-((4-chloro-2-fluorobenzyl)oxy)pyrimidin-4-yl)-2-oxabicyclo[2.2.2]octan-1-yl)methyl)-1-(oxetan-2-ylmethyl)-1H-benzo[d]imidazole-6-carboxylic acid]
< 20 | N#Cc1ccc(COc2cccc([C@@H]3CC[C@@H](Cc4nc5ccc(C(=O)O)cc5n4C[C@@H]4CCO4)OC3)n2)c(F)c1 (single isomer, unassigned) [Compound 31]
< 20 | C[C@@]1(c2ccc(Cl)cn2)Oc2cccc(C34CCN(Cc5nc6ccc(C(=O)O)cc6n5C[C@@H]5CCO5)CC3C4)c2O1 (single isomer, unassigned) [Compound 72]

EC50 [nM] | SMILES
20 to 100 | C[C@@]1(c2ccc(Cl)cn2)Oc2cccc([C@@H]3CC[C@H](Cc4nc5ccc(C(=O)O)cc5n4C[C@@H]4CCO4)OC3)c2O1 (single isomer, unassigned) [Compound 103]
20 to 100 | C[C@]1(c2ccc(Cl)cn2)Oc2cccc(C3=CC[C@H](Cc4nc5ccc(C(=O)O)cc5n4Cc4cscn4)OC3)c2O1 (single isomer, unassigned) [Compound 114]
> 100 | C[C@]1(c2ccc(Cl)cc2F)Oc2cccc(C3=CC[C@H](Cc4nc5ccc(C(=O)O)cc5n4C[C@@H]4CCO4)OC3)c2O1 (single isomer, unassigned) [Compound 107]
20 to 100 | O=C(O)c1ccc2nc(CN3CCC(c4cccc5c4OC(c4ccc(Cl)cc4F)C(=O)N5)CC3)n(C[C@@H]3CCO3)c2c1 (mixture of isomers) [Compound 104, 2-((4-(2-(4-chloro-2-fluorophenyl)-3-oxo-3,4-dihydro-2H-benzo[b][1,4]oxazin-8-yl)piperidin-1-yl)methyl)-1-(((S)-oxetan-2-yl)methyl)-1H-benzo[d]imidazole-6-carboxylic acid]
> 100 | C[C@@]1(c2ccc(Cl)cc2F)Oc2cccc(-c3ccc(Cc4nc5ccc(C(=O)O)cc5n4C[C@@H]4CCO4)nc3)c2O1 (single isomer, unassigned) [Compound 4]
< 20 | CC1(c2ccc(Cl)cc2F)Oc2cccc(C3=CCC(Cc4nc5ccc(C(=O)O)cc5n4C[C@@H]4CCO4)OC3)c2O1 (mixture of isomers) [Compound 61, 2-((5-(2-(4-chloro-2-fluorophenyl)-2-methylbenzo[d][1,3]dioxol-4-yl)-3,6-dihydro-2H-pyran-2-yl)methyl)-1-(((S)-oxetan-2-yl)methyl)-1H-benzo[d]imidazole-6-carboxylic acid]
< 20 | CC1(c2c(F)cc(Cl)cc2F)Oc2cccc(C3=CCC(Cc4nc5ccc(C(=O)O)cc5n4C[C@@H]4CCO4)OC3)c2O1 (mixture of isomers) [Compound 109, 2-((5-(2-(4-chloro-2,6-difluorophenyl)-2-methylbenzo[d][1,3]dioxol-4-yl)-3,6-dihydro-2H-pyran-2-yl)methyl)-1-(((S)-oxetan-2-yl)methyl)-1H-benzo[d]imidazole-6-carboxylic acid]
20 to 100 | CC1(c2ccc(Cl)cc2F)Oc2cccc(-c3ncc(Cc4nc5ccc(C(=O)O)cc5n4C[C@@H]4CCO4)cn3)c2O1 (mixture of isomers) [Compound 21, 2-((2-(2-(4-chloro-2-fluorophenyl)-2-methylbenzo[d][1,3]dioxol-4-yl)pyrimidin-5-yl)methyl)-1-(((S)-oxetan-2-yl)methyl)-1H-benzo[d]imidazole-6-carboxylic acid]
< 20 | C[C@]1(c2ccc(Cl)cn2)Oc2cccc(C3=CC[C@H](Cc4nc5ccc(C(=O)O)cc5n4Cc4cncs4)OC3)c2O1 (single isomer, unassigned) [Compound 112]
< 20 | C[C@@]1(c2ccc(C3CC3)cn2)Oc2cccc(C3=CCC(Cc4nc5ccc(C(=O)O)cc5n4C[C@@H]4CCO4)OC3)c2O1 (single isomer, unassigned) [Compound 111]
< 20 | C[C@@]1(c2ccc(C(F)(F)F)cn2)Oc2cccc(C3=CCC(Cc4nc5ccc(C(=O)O)cc5n4C[C@@H]4CCO4)OC3)c2O1 (single isomer, unassigned) [Compound 121]
20 to 100 | CC1(c2ccc(Cl)cc2F)Oc2cccc(-c3ccn(Cc4nc5ccc(C(=O)O)cc5n4C[C@@H]4CCO4)c(=O)c3)c2O1 (mixture of isomers) [Compound 22, 2-((4-(2-(4-chloro-2-fluorophenyl)-2-methylbenzo[d][1,3]dioxol-4-yl)-2-oxopyridin-1(2H)-yl)methyl)-1-(((S)-oxetan-2-yl)methyl)-1H-benzo[d]imidazole-6-carboxylic acid]
< 20 | C[C@]1(c2ccc(Cl)cn2)Oc2cccc(-c3ccc(Cc4nc5ccc(C(=O)O)cc5n4C[C@@H]4CCO4)cc3)c2O1 (single isomer, unassigned) [Compound 40]
> 100 | O=C(O)c1ccc2nc(CC3CC(c4cccc(OCc5ccc(Cl)cc5F)n4)CO3)n(C[C@@H]3CCO3)c2c1 (mixture of isomers) [Compound 71, 2-((4-(6-((4-chloro-2-fluorobenzyl)oxy)pyridin-2-yl)tetrahydrofuran-2-yl)methyl)-1-(((S)-oxetan-2-yl)methyl)-1H-benzo[d]imidazole-6-carboxylic acid]
> 100 | N#Cc1ccc(COc2cccc(C34CCC(Cc5nc6ccc(C(=O)O)cc6n5C[C@@H]5CCO5)(CC3)OC4)n2)c(F)c1 [Compound 36, (S)-2-((4-(6-((4-cyano-2-fluorobenzyl)oxy)pyridin-2-yl)-2-oxabicyclo[2.2.2]octan-1-yl)methyl)-1-(oxetan-2-ylmethyl)-1H-benzo[d]imidazole-6-carboxylic acid]
